According to patent US20250374926A1, “NOVEL DERIVATIVES OF NON-CODED AMINO ACIDS AND THEIR USE IN CROP PROTECTION” (FORTEPHEST LTD., priority 2022, published 2025):

Key:
Assay type in all cases: in vivo
Sinapis = assay: Post-emergence herbicidal effect on potted weeds; details: 2-3 true leaves, up to 5 mg/pot, scale 0 (dead plants) to 5 (healthy, as control)
Experimental: (§1) Weed seeds were sawn in 0.3-liter pots containing medium-heavy clay-loam soil from organic fields (55% clay, 23% silt, 20% sand, 2% organic matter, pH 7.1). The experiment was conducted in a completely randomized design. Each treatment was replicated three times (3 pots). Each compound was typically tested on a weed panel which included Amaranth, Abutilon, Malva, Silybum, and Sinapis. The herbicides were applied at doses from 0 (control) to 5 mg/pot. The herbicides were applied on grown plants at stage 2-3 true leaves (post-emergence treatment). The plants were grown in the mesh house during the entire experiment. Plant development at 6, 12, 19, 26, and 32 days after application (DAA) was evaluated on a scale of 0 to 5, in which 0 represents dead plants, and 5 represents healthy plants similar or not different from Control. In the context of the invention, the herbicidal effect was expressed as a score calculated as an average of assessments of plants' vigor, height, and leaf color.

Lettuce = assay: Post-emergence herbicidal effect on potted weeds; details: 2-3 true leaves, up to 5 mg/pot, scale 0 (dead plants) to 5 (healthy, as control)
Experimental: as §1

Lactuca = assay: Post-emergence herbicidal effect on potted weeds; details: 2-3 true leaves, up to 5 mg/pot, scale 0 (dead plants) to 5 (healthy, as control)
Experimental: as §1

Silybum = assay: Post-emergence herbicidal effect on potted weeds; details: 2-3 true leaves, up to 5 mg/pot, scale 0 (dead plants) to 5 (healthy, as control)
Experimental: as §1

Solanum = assay: Post-emergence herbicidal effect on potted weeds; details: 2-3 true leaves, up to 5 mg/pot, scale 0 (dead plants) to 5 (healthy, as control)
Experimental: as §1

Malva = assay: Post-emergence herbicidal effect on potted weeds; details: 2-3 true leaves, up to 5 mg/pot, scale 0 (dead plants) to 5 (healthy, as control)
Experimental: as §1

Abutilon = assay: Post-emergence herbicidal effect on potted weeds; details: 2-3 true leaves, up to 5 mg/pot, scale 0 (dead plants) to 5 (healthy, as control)
Experimental: as §1

Trifolium = assay: Post-emergence herbicidal effect on potted weeds; details: 2-3 true leaves, up to 5 mg/pot, scale 0 (dead plants) to 5 (healthy, as control)
Experimental: as §1

Verbesina = assay: Post-emergence herbicidal effect on potted weeds; details: 2-3 true leaves, up to 5 mg/pot, scale 0 (dead plants) to 5 (healthy, as control)
Experimental: as §1

Amaranth = assay: Post-emergence herbicidal effect on potted weeds; details: 2-3 true leaves, up to 5 mg/pot, scale 0 (dead plants) to 5 (healthy, as control)
Experimental: as §1

Lettuce seeds = assay: Filter paper bioassay on germination and early development of Lettuce seeds; details: lowest concentration causing malformation of radicle or shoots, visually assessed six days after beginning, 0 to 1 mmol/l; for minimal effective concentration: 144 h, read-out: MEC, score (Minimal Effective Concentration, activity score) (converted)
Experimental: Materials: Seeds of Lettuce R. (Super-Jericho, non-sterilized) were obtained from Ben Shahar Moshe Ltd., 99% purity. The test compounds listed in Table 3 below were synthesized de novo or purchased from different vendors. Bioassays: Filter Paper Bioassays with Lettuce seeds were performed following Bertin et al. 2009 with modifications as described below. Seeds were placed on Whatman no. 1 filter paper (Whatman, Middlesex, U.K.) in Petri dishes (10 seeds per plate) with 2.0 ml of an aqueous solution of test material in a concentration ranging from 0 (control) to 1 mmol/l. The Petri dishes were arranged in a tray tilted at a 45-degree angle and were kept in the dark for 48 hours. Then trays with plates were transferred to the growth chamber with a 6/18 dark/light cycle for four days. Each experiment was performed in at least two repeats.
The development of plants' radicles and shoots was visually assessed six days after the beginning of the test to determine the Minimal Effective Concentration (MEC) of a test material. In the context of the invention, MEC is defined as the lowest concentration level of a test material that caused deviation (malformation of radicle or shoots).

SMILES | Average Herbicidal Effect, score (Sinapis) | Average Herbicidal Effect, score (Lettuce) | Average Herbicidal Effect, score (Lactuca) | Average Herbicidal Effect, score (Silybum) | Average Herbicidal Effect, score (Solanum) | Average Herbicidal Effect, score (Malva) | Average Herbicidal Effect, score (Abutilon) | Average Herbicidal Effect, score (Trifolium) | Average Herbicidal Effect, score (Verbesina) | Average Herbicidal Effect, score (Amaranth) | activity score (Lettuce seeds) [score] | minimal effective concentration (Lettuce seeds) [µM]
CCOCCOCCOC(=O)COc1ccc(F)c(Br)n1 [compound 7156, 2-(2-ethoxyethoxy)ethyl 2-[(6-bromo-5-fluoropyridin-2-yl)oxy]acetate] | 1 | 0 | 2 | 1 | 0 | 1 | 1 | 2 | 1 | 1 | 5.5 | 
CCOC(=O)COc1ccc(F)c(Br)n1 [compound 7118, ethyl [(6-bromo-5-fluoropyridin-2-yl)oxy]acetate] | 1 | 5 | 3 | 1 | 0 | 1 | 4 | 2 | 2 | 1 |  | < 1
O=C(O)COc1ccc(F)c(Br)n1 [compound 7157, [(6-bromo-5-fluoropyridin-2-yl)oxy]acetic acid] | 1 | 1 | 2 | 1 | 0 | 1 | 3 | 2 | 0 | 0 |  | 1
